Experimental data published in ChEMBL document CHEMBL6127025, “Discovery of a potent, selective, and orally available EGFR C797S mutant inhibitor (DS06652923) with in vivo antitumor activity” (Bioorg Med Chem, 2024).
Converted amounts (≈) assume the structure as drawn.

Legend:
[1] = system: BaF3; test: Anti-proliferative activity against mouse BaF3 cells expressing EGFR […]/T790M/C797S mutant incubated for 3 days by Cell Titer Glo 2.0 assay; type: functional; details: BaF3, 72 h, time 3 day
[2] = system: BaF3; test: Anti-proliferative activity against mouse BaF3 cells expressing wild-type EGFR incubated for 3 days by Cell Titer Glo 2.0 assay; type: functional; details: BaF3, 72 h, time 3 day
[3] = system: BaF3; test: Antitumor activity against mouse BaF3 cells expressing EGFR […]/T790M/[…] mutant allografted in Balb/c nude mouse at 12.5 mg/kg, po bid for 5 days consecutively relative to control; type: functional; details: BaF3, 120 h, time 5 day, read-out: TGI
[4] = In vivo inhibition of phosphorylation of EGFR […]/T790M/[…] mutant at Y1068 in mouse BaF3 cells allografted in Balb/c nude mouse at 12.5 to 100 mg/kg, po measured after 6 hrs by Western blot analysis relative to control; type: functional; details: dose 12.5-100 mg/kg
[5] = Metabolic stability in mouse liver microsomes assessed as compound remaining; type: ADME, Microsome
[6] = system: BaF3; test: Antitumor activity against mouse BaF3 cells expressing EGFR […]/T790M/[…] mutant allografted in Balb/c nude mouse administered orally twice daily for 5 days consecutively; type: functional, cell-based; details: dose 12.5-25 mg/kg, route po, time 5.0 day
[7] = Toxicity in Balb/c nude mouse allografted with mouse BaF3 cells expressing EGFR […]/T790M/[…] mutant assessed as signs of toxicity at 12.5 to 25 mg/kg, po bid for 5 days consecutively; type: organism-based; details: in vivo, 120 h, dose 12.5-25 mg/kg, time 5 day
[8] = Plasma protein binding in human; type: ADME, cell-free; details: read-out: PPB
[9] = system: BaF3; test: Antitumor activity against mouse BaF3 cells expressing EGFR […]/T790M/[…] mutant allografted in Balb/c nude mouse at 25 mg/kg, po bid for 5 days consecutively relative to control; type: functional; details: BaF3, 120 h, time 5 day, read-out: TGI
[10] = system: BaF3; test: Anti-proliferative activity against mouse BaF3 cells expressing EGFR L858R/T790M/C797S mutant incubated for 3 days by Cell Titer Glo 2.0 assay; type: functional; details: BaF3, 72 h, time 3 day
[11] = Toxicity in Balb/c nude mouse allografted with mouse BaF3 cells expressing EGFR […]/T790M/[…] mutant assessed as signs of toxicity at 25 to 100 mg/kg, po qd for 5 days consecutively; type: organism-based; details: in vivo, 120 h, dose 25-100 mg/kg, time 5 day
[12] = Apparent permeability in MDCK cells; type: ADME, cell-based, Canis lupus familiaris; details: dog
[13] = Metabolic stability in human liver microsomes assessed as compound remaining; type: ADME, Microsome
[14] = system: BaF3; test: Antitumor activity against mouse BaF3 cells expressing EGFR […]/T790M/[…] mutant allografted in Balb/c nude mouse at 25 mg/kg, po qd for 5 days consecutively relative to control; type: functional; details: BaF3, 120 h, time 5 day, read-out: TGI
[15] = Solubility of compound at pH 1.2; type: physicochemical; details: buffer
[16] = Toxicity in Balb/c nude mouse allografted with mouse BaF3 cells expressing EGFR […]/T790M/[…] mutant assessed as body weight loss at 25 to 100 mg/kg, po qd for 5 days consecutively; type: organism-based; details: in vivo, 120 h, dose 25-100 mg/kg, time 5 day
[17] = Plasma protein binding in mouse; type: ADME, cell-free; details: read-out: PPB
[18] = Toxicity in Balb/c nude mouse allografted with mouse BaF3 cells expressing EGFR […]/T790M/[…] mutant assessed as body weight loss at 12.5 to 25 mg/kg, po bid for 5 days consecutively; type: organism-based; details: in vivo, 120 h, dose 12.5-25 mg/kg, time 5 day
[19] = Lipophilicity, logD of compound; type: physicochemical; details: octanol/water
[20] = system: BaF3; test: Antitumor activity against mouse BaF3 cells expressing EGFR […]/T790M/[…] mutant allografted in Balb/c nude mouse administered orally once daily for 5 days consecutively; type: functional, cell-based; details: dose 25-100 mg/kg, route po, time 5.0 day
[21] = system: BaF3; test: Antitumor activity against mouse BaF3 cells expressing EGFR […]/T790M/[…] mutant allografted in Balb/c nude mouse at 100 mg/kg, po qd for 5 days consecutively relative to control; type: functional; details: BaF3, 120 h, time 5 day, read-out: TGI
[22] = Solubility of compound at pH 6.8; type: physicochemical; details: buffer

With CC(C)Oc1cc(Nc2ccnc(-c3cnn(S(=O)(=O)C4CC4)c3)n2)ncc1-c1cnn(C)c1 the GI50 [1] was 61 nM and the GI50 [2] was 879 nM.
Compound CC(C)Oc1cc(Nc2ccnc(-c3cnn(S(=O)(=O)C4CC4)c3)n2)ncc1-c1cnn([C@H]2CCN(C)C2)c1 has a GI50 [1] of 19 nM and a GI50 [2] of 463 nM.
In the case of CC(C)Oc1cc(Nc2ccnc(-c3cnn(S(=O)(=O)C4CC4)c3)n2)ncc1-c1cn([C@H]2C[C@H](C)N(C)C2)nc1F, the GI50 [1] is reported as 43 nM and the GI50 [2] is reported as 856 nM.
CC(C)Oc1cc(Nc2ccnc(-c3cnn(S(=O)(=O)C4CC4)c3)n2)ncc1-c1cnn(C2CCN(C)CC2)c1 showed a GI50 [1] of 9.6 nM and a GI50 [2] of 203 nM.
CC(C)Oc1cc(Nc2ccnc(-c3cnn(S(=O)(=O)C4CC4)c3)n2)ncc1-c1cnn([C@@H]2CCN(C)C2)c1 showed a GI50 [1] of 21 nM and a GI50 [2] of 318 nM.
For CC(C)Oc1cc(Nc2ccnc(-c3cnn(S(=O)(=O)C4CC4)c3)n2)ncc1-c1cnn(C2CCOCC2)c1, the GI50 [1] was 46 nM and the GI50 [2] was 353 nM.
CC(C)Oc1cc(Nc2ccnc(-c3cnn(S(=O)(=O)C4CC4)c3)n2)ncc1-c1cnn([C@H]2C[C@H](C)N(C)C2)c1 showed a GI50 [1] of 26 nM and a GI50 [2] of 387 nM.
With CC(C)Oc1cc(Nc2ccnc(-c3cnn(S(=O)(=O)C4CC4)c3)n2)ncc1-c1cn(C2CCN(C)CC2)nc1OC(F)F the GI50 [1] was 9.4 nM, the inhibition in vivo at 12.5 mg/kg [3] was 88% and the “inhibition (INH)” value [4] was 100%. The Stability [5] was 55%, the Activity [6] was “Dose-Dependent Effect” and the Activity [7] was “Non-Toxic”. For the same compound, the fraction unbound [8] was < 0.002, the inhibition in vivo at 25 mg/kg [9] was 119% and the GI50 [10] was 13 nM. For the same compound, the Activity [11] was “Non-Toxic”, the Papp [12] was 9 ×10⁻⁶ cm/s and the Stability [13] was 18%. The inhibition in vivo at 25 mg/kg [14] was 111%, the solubility [15] was 1200 µg/mL (≈ 1910 µM) and the Activity [16] was “Non-Toxic”. For the same compound, the fraction unbound [17] was < 0.002, the Activity [18] was “Non-Toxic” and the logD [19] was 4.6. For the same compound, the Activity [20] was “Dose-Dependent Effect”, the GI50 [2] was 760 nM and the inhibition in vivo at 100 mg/kg [21] was 127%.
In the case of COc1nn([C@H]2C[C@H](C)N(C)C2)cc1-c1cnc(Nc2ccnc(-c3cnn(S(=O)(=O)C4CC4)c3)n2)cc1OC(C)C, the GI50 [1] is reported as 12 nM, the Stability [5] is reported as 20% and the fraction unbound [8] is reported as < 0.002. The GI50 [10] was 23 nM, the Papp [12] was 5.2 ×10⁻⁶ cm/s and the Stability [13] was 1%. For the same compound, the solubility [15] was > 1100 µg/mL, the fraction unbound [17] was < 0.002 and the logD [19] was 5.4. For the same compound, the GI50 [2] was 574 nM.
With CC(C)Oc1cc(Nc2ccnc(-c3cnn(S(=O)(=O)C4CC4)c3)n2)ncc1-c1cnn(-c2ccncc2)c1 the GI50 [1] was 601 nM and the GI50 [2] was > 10000 nM.
In the case of COc1nn(C2CCN(C)CC2)cc1-c1cnc(Nc2ccnc(-c3cnn(S(=O)(=O)C4CC4)c3)n2)cc1OC(C)C, the GI50 [1] is reported as 6.5 nM, the Stability [5] is reported as 48% and the fraction unbound [8] is reported as < 0.002. For the same compound, the GI50 [10] was 18 nM, the solubility [22] was 15 µg/mL (≈ 25.3 µM) and the Papp [12] was 3.1 ×10⁻⁶ cm/s. For the same compound, the Stability [13] was 24%, the solubility [15] was > 1100 µg/mL and the fraction unbound [17] was < 0.002. It also gave a logD [19] of 4.4 and a GI50 [2] of 565 nM.
Cc1nn([C@H]2C[C@H](C)N(C)C2)cc1-c1cnc(Nc2ccnc(-c3cnn(S(=O)(=O)C4CC4)c3)n2)cc1OC(C)C gave a GI50 [1] of 168 nM and a GI50 [2] of 2290 nM.
